Laboratory results taken from patent US20260235618A1, “MICROBEADS WITH RATIOMETRIC LANTHANIDE ENCODING FOR DRUG SCREENING” (CZ Biohub SF, LLC, priority 2022, published 2026).
“Also recorded” adds a separate entry of the source.

Target: Cdc20 (Homo sapiens, UniProt Q12834)
Experiment: Multiplexed binding assay of Cdc20 to peptides on spectrally encoded beads, with and without small molecule (per-bead fluorescence of labeled antibody)
Conditions: bead-bound D-Box peptides; per-bead fluorescence intensity of fluorescently-labeled antibody recognizing bound Cdc20; vs control without Apcin (FIG. 2)
From the text: FIG. 2 provides data illustrating the effect of the small molecule Apcin on the binding between Cdc20 and different peptide sequences. Binding was quantified by measuring the per-bead fluorescence intensity of a fluorescently-labeled antibody that recognizes bound Cdc20. […] The control is the left bar for each of the peptides.
In one illustrative assay, a library of peptide-bound microbeads is generated by synthesizing binding site peptides directly on microbeads. Beads are pooled and then incubated with the protein of interest in the presence or absence of a modulator or candidate biding agent. The beads are then typically washed and the amount of signal from a label directly or indirectly attached to the protein of interest that is bound to each bead is determined. […]
For illustration, binding site peptides can be from proteins that are binding partners of any protein of interest, e.g., a signaling protein. […] In some embodiments, such a bead, or pool of such beads, is deposited in a compartment, e.g., a microwell plate such as a 96-well plate, with a signaling protein and a candidate agent to be evaluated, such as a small molecule. […] Use of multiple peptide sequences (e.g., for different binding sites or different affinities) can serve as an internal control and provide the ability to quantitatively assess a loss of signal without concerns regarding assay quality (e.g., FIG. 2). […]

Cdc20, sequence (Q12834 whole entry, species assumed): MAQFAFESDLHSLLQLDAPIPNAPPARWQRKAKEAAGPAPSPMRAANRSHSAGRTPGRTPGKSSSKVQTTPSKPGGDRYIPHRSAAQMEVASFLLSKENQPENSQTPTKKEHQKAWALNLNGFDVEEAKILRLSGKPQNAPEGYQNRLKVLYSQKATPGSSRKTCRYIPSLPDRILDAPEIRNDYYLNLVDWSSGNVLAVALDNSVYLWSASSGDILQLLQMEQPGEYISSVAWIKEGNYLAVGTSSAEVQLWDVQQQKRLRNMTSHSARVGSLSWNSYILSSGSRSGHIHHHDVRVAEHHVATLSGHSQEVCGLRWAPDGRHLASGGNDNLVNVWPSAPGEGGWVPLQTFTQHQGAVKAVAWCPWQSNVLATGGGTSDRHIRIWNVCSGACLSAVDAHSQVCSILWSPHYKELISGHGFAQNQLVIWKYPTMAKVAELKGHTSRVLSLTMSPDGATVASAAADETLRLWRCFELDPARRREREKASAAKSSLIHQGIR

Cc1ncc([N+](=O)[O-])n1CCOC(=O)NC(Nc1ncccn1)C(Cl)(Cl)Cl (stereo not shown) [Apcin]
Effect on binding between Cdc20 and D-Box-containing peptide sequences: blocks the binding site between Cdc20 and D-Box-containing sequences; also recorded: selectively prevented the binding of Cdc20 to D-Box-containing peptides
